Assays:
[1] = (§1) Inhibition of Saccharomyces sp. alpha-glucosidase using p-nitrophenyl a-D-glucopyranoside as substrate by spectrophotometric analysis
[2] = tested on: Saccharomyces sp.; assay: as §1
[3] = tested on: Saccharomyces sp.; assay: Inhibition of Saccharomyces sp. alpha-glucosidase using p-nitrophenyl a-D-glucopyranoside as substrate at 100 ug/ml by spectrophotometric analysis

Row | Compound | IC50 [1] | inhibition [2] | Imax [3] | IC50 ([1]; read-out: IC50)
1 | CC1=C(C)C(=O)O[C@@H]([C@](C)(O)C2=CC[C@@]3(O)[C@@H]4CC=C5CC=CC(=O)[C@]5(C)[C@H]4CC[C@]23C)C1 | 38.2 µg/mL | Dose-dependent effect | 96.1% | –
2 | OC[C@H]1NC[C@H](O)[C@@H](O)[C@@H]1O [DUVOGLUSTAT] | – | – | – | 422 µM
3 | CC1=C(C)C(=O)O[C@@H]([C@](C)(O)[C@H]2CC[C@H]3[C@@H]4CC=C5CC=CC(=O)[C@]5(C)[C@H]4CC[C@]23C)C1 | 85.8 µg/mL | Dose-dependent effect | 69.7% | –
4 | CC1=C(C)C(=O)O[C@@H]([C@](C)(O)[C@H]2CC[C@@H]3[C@]2(C)CC[C@H]2[C@@]3(O)[C@H]3O[C@H]3[C@@]3(O)CC=CC(=O)[C@]23C)C1 | 40.65 µg/mL | Dose-dependent effect | 94.3% | –
